Laboratory results reported in ChEMBL document CHEMBL3885881, “DrugMatrix”.

Species on record: Rattus norvegicus
Assay: DrugMatrix - Regimen: Daily Repeat
Assay type: toxicity, organism-based, Sprague-Dawley
Design: regimen Daily Repeat, gender Male, age 6-8 weeks
Conditions: in vivo, po, route oral GAVAGE, vehicle 100 % SALINE
[1] = 0 mg/kg, 72 h, tissue Plasma, dose level Control, time 3 day
[2] = 0 mg/kg, 120 h, tissue Blood, dose level Control, time 5 day
[3] = 0 mg/kg, 120 h, tissue Plasma, dose level Control, time 5 day
[4] = 200 mg/kg, 72 h, tissue Blood, dose level Low, time 3 day
[5] = 200 mg/kg, 72 h, tissue Plasma, dose level Low, time 3 day
[6] = 200 mg/kg, 120 h, tissue Blood, dose level Low, time 5 day
[7] = 200 mg/kg, 120 h, tissue Plasma, dose level Low, time 5 day
[8] = 600 mg/kg, 72 h, tissue Blood, dose level High, time 3 day
[9] = 600 mg/kg, 72 h, tissue Plasma, dose level High, time 3 day
[10] = 600 mg/kg, 120 h, tissue Blood, dose level High, time 5 day
[11] = 600 mg/kg, 120 h, tissue Plasma, dose level High, time 5 day

LEAD (II) ACETATE
ALANINE AMINOTRANSFERASE [1]: 50.67 u/L | ALKALINE PHOSPHATASE [1]: 356.33 u/L | ASPARTATE AMINOTRANSFERASE [1]: 78.17 u/L | BLOOD UREA NITROGEN [1]: 14.17 mg/dL | CARBON DIOXIDE [1]: 31.33 mmol/L | CHLORIDE [1]: 98.5 MEQ/L | CHOLESTEROL [1]: 76.5 mg/dL | CREATINE PHOSPHOKINASE [1]: 248.33 u/L | CREATININE [1]: 0.2 mg/dL | LACTATE DEHYDROGENASE [1]: 107 u/L | LIPASE [1]: 9.83 u/L | PHOSPHORUS [1]: 12.8 mg/dL | POTASSIUM [1]: 6.75 MEQ/L | TOTAL BILIRUBIN [1]: 0.18 mg/dL | TOTAL PROTEIN [1]: 5.98 G/DL | URIC ACID [1]: 1.42 mg/dL | ABSOLUTE BASOPHIL [2]: 0 CELLS/uL | ABSOLUTE EOSINOPHIL [2]: 0 CELLS/uL | ABSOLUTE LYMPHOCYTE [2]: 8681.17 CELLS/uL | ABSOLUTE MONOCYTE [2]: 79.83 CELLS/uL | ABSOLUTE SEGMENTED NEUTROPHIL [2]: 689 CELLS/uL | BASOPHIL [2]: 0% | EOSINOPHIL [2]: 0% | ERYTHROCYTE COUNT [2]: 5.49 x10E6/uL | HEMATOCRIT [2]: 33.55% | HEMOGLOBIN [2]: 13.1 G/DL | LEUKOCYTE COUNT [2]: 9.45 x10E3/uL | LYMPHOCYTE [2]: 92.33% | MEAN CORPUSCULAR HEMOGLOBIN [2]: 23.92 pg | MEAN CORPUSCULAR HEMOGLOBIN CONCENTRATION [2]: 39.07 G/DL | MONOCYTE [2]: 0.67% | NEUTROPHIL [2]: 7% | NUCLEATED RED BLOOD CELLS [2]: 0.17 /100WBC | PLATELET COUNT [2]: 1001.17 x10E3/uL | ALANINE AMINOTRANSFERASE [3]: 49.33 u/L | ALKALINE PHOSPHATASE [3]: 300.33 u/L | ASPARTATE AMINOTRANSFERASE [3]: 83.5 u/L | BLOOD UREA NITROGEN [3]: 16 mg/dL | CHLORIDE [3]: 100.5 MEQ/L | CHOLESTEROL [3]: 74.33 mg/dL | CREATINE PHOSPHOKINASE [3]: 489.67 u/L | CREATININE [3]: 0.35 mg/dL | GLUCOSE [3]: 151 mg/dL | LACTATE DEHYDROGENASE [3]: 133.67 u/L | LIPASE [3]: 11.17 u/L | PHOSPHORUS [3]: 10.88 mg/dL | POTASSIUM [3]: 5.5 MEQ/L | SODIUM [3]: 145.7 MEQ/L | TOTAL BILIRUBIN [3]: 0.2 mg/dL | TOTAL PROTEIN [3]: 6.05 G/DL | URIC ACID [3]: 0.68 mg/dL | ABSOLUTE BASOPHIL [4]: 0 CELLS/uL | ABSOLUTE EOSINOPHIL [4]: 42 CELLS/uL | ABSOLUTE LYMPHOCYTE [4]: 7845 CELLS/uL | ABSOLUTE MONOCYTE [4]: 45.67 CELLS/uL | ABSOLUTE SEGMENTED NEUTROPHIL [4]: 634 CELLS/uL | BASOPHIL [4]: 0% | EOSINOPHIL [4]: 0.67% | ERYTHROCYTE COUNT [4]: 5.3 x10E6/uL | HEMATOCRIT [4]: 32.4% | HEMOGLOBIN [4]: 12.73 G/DL | LEUKOCYTE COUNT [4]: 8.57 x10E3/uL | LYMPHOCYTE [4]: 91.67% | MEAN CORPUSCULAR HEMOGLOBIN [4]: 24.1 pg | MONOCYTE [4]: 0.67% | NEUTROPHIL [4]: 7% | NUCLEATED RED BLOOD CELLS [4]: 0.67 /100WBC | PLATELET COUNT [4]: 1060.33 x10E3/uL | ALANINE AMINOTRANSFERASE [5]: 44.33 u/L | ALBUMIN [5]: 4.1 G/DL | ALKALINE PHOSPHATASE [5]: 338.33 u/L | ASPARTATE AMINOTRANSFERASE [5]: 80.67 u/L | BLOOD UREA NITROGEN [5]: 14 mg/dL | CHLORIDE [5]: 100 MEQ/L | CHOLESTEROL [5]: 80 mg/dL | CREATINE PHOSPHOKINASE [5]: 412 u/L | CREATININE [5]: 0.48 mg/dL | GLUCOSE [5]: 189.33 mg/dL | LACTATE DEHYDROGENASE [5]: 140.33 u/L | LIPASE [5]: 11.67 u/L | PHOSPHORUS [5]: 13.53 mg/dL | POTASSIUM [5]: 5.59 MEQ/L | TOTAL BILIRUBIN [5]: 0.13 mg/dL | TOTAL PROTEIN [5]: 5.93 G/DL | URIC ACID [5]: 1.37 mg/dL | ABSOLUTE BASOPHIL [6]: 0 CELLS/uL | ABSOLUTE EOSINOPHIL [6]: 25 CELLS/uL | ABSOLUTE MONOCYTE [6]: 82.67 CELLS/uL | ABSOLUTE SEGMENTED NEUTROPHIL [6]: 668 CELLS/uL | BASOPHIL [6]: 0% | EOSINOPHIL [6]: 0.33% | ERYTHROCYTE COUNT [6]: 5.28 x10E6/uL | HEMATOCRIT [6]: 32.07% | HEMOGLOBIN [6]: 12.83 G/DL | LEUKOCYTE COUNT [6]: 11.1 x10E3/uL | LYMPHOCYTE [6]: 92.67% | MEAN CORPUSCULAR HEMOGLOBIN [6]: 24.3 pg | MEAN CORPUSCULAR HEMOGLOBIN CONCENTRATION [6]: 40.03 G/DL | MONOCYTE [6]: 0.67% | NEUTROPHIL [6]: 6.33% | NUCLEATED RED BLOOD CELLS [6]: 0.67 /100WBC | PLATELET COUNT [6]: 1339.67 x10E3/uL | ALANINE AMINOTRANSFERASE [7]: 57.33 u/L | ALBUMIN [7]: 3.9 G/DL | ALKALINE PHOSPHATASE [7]: 297 u/L | ASPARTATE AMINOTRANSFERASE [7]: 91 u/L | BLOOD UREA NITROGEN [7]: 14.33 mg/dL | CARBON DIOXIDE [7]: 30 mmol/L | CHLORIDE [7]: 99.33 MEQ/L | CHOLESTEROL [7]: 71.33 mg/dL | CREATINE PHOSPHOKINASE [7]: 225 u/L | CREATININE [7]: 0.46 mg/dL | LACTATE DEHYDROGENASE [7]: 122 u/L | LIPASE [7]: 9 u/L | PHOSPHORUS [7]: 10.9 mg/dL | POTASSIUM [7]: 5.95 MEQ/L | TOTAL BILIRUBIN [7]: 0.13 mg/dL | TOTAL PROTEIN [7]: 6.23 G/DL | URIC ACID [7]: 0.7 mg/dL | ABSOLUTE BASOPHIL [8]: 0 CELLS/uL | ABSOLUTE EOSINOPHIL [8]: 32.67 CELLS/uL | ABSOLUTE LYMPHOCYTE [8]: 9967.33 CELLS/uL | ABSOLUTE MONOCYTE [8]: 129.67 CELLS/uL | ABSOLUTE SEGMENTED NEUTROPHIL [8]: 570.33 CELLS/uL | BASOPHIL [8]: 0% | EOSINOPHIL [8]: 0.33% | ERYTHROCYTE COUNT [8]: 5.69 x10E6/uL | HEMATOCRIT [8]: 34.9% | HEMOGLOBIN [8]: 13.73 G/DL | LEUKOCYTE COUNT [8]: 10.7 x10E3/uL | LYMPHOCYTE [8]: 92.67% | MEAN CORPUSCULAR HEMOGLOBIN [8]: 24.13 pg | NEUTROPHIL [8]: 5.67% | NUCLEATED RED BLOOD CELLS [8]: 0.33 /100WBC | PLATELET COUNT [8]: 964.67 x10E3/uL | ALANINE AMINOTRANSFERASE [9]: 56.67 u/L | ALKALINE PHOSPHATASE [9]: 262 u/L | ASPARTATE AMINOTRANSFERASE [9]: 84.33 u/L | BLOOD UREA NITROGEN [9]: 13.33 mg/dL | CHLORIDE [9]: 99 MEQ/L | CREATINE PHOSPHOKINASE [9]: 319.33 u/L | CREATININE [9]: 0.55 mg/dL | LACTATE DEHYDROGENASE [9]: 97 u/L | LIPASE [9]: 14.33 u/L | PHOSPHORUS [9]: 11.57 mg/dL | POTASSIUM [9]: 5.33 MEQ/L | TOTAL BILIRUBIN [9]: 0.1 mg/dL | TOTAL PROTEIN [9]: 5.83 G/DL | URIC ACID [9]: 0.87 mg/dL | ABSOLUTE BASOPHIL [10]: 0 CELLS/uL | ABSOLUTE EOSINOPHIL [10]: 20.67 CELLS/uL | ABSOLUTE LYMPHOCYTE [10]: 6898.67 CELLS/uL | ABSOLUTE MONOCYTE [10]: 79.33 CELLS/uL | ABSOLUTE SEGMENTED NEUTROPHIL [10]: 568 CELLS/uL | BASOPHIL [10]: 0% | EOSINOPHIL [10]: 0.33% | ERYTHROCYTE COUNT [10]: 5.67 x10E6/uL | HEMATOCRIT [10]: 33.33% | HEMOGLOBIN [10]: 12.97 G/DL | LEUKOCYTE COUNT [10]: 7.57 x10E3/uL | LYMPHOCYTE [10]: 90.67% | MEAN CORPUSCULAR HEMOGLOBIN [10]: 22.87 pg | MEAN CORPUSCULAR HEMOGLOBIN CONCENTRATION [10]: 38.93 G/DL | MEAN CORPUSCULAR VOLUME [10]: 58.77 fL | MONOCYTE [10]: 1% | NEUTROPHIL [10]: 8% | NUCLEATED RED BLOOD CELLS [10]: 0 /100WBC | PLATELET COUNT [10]: 1398 x10E3/uL | ALANINE AMINOTRANSFERASE [11]: 48 u/L | ALBUMIN [11]: 4 G/DL | ALKALINE PHOSPHATASE [11]: 286.67 u/L | ASPARTATE AMINOTRANSFERASE [11]: 92.67 u/L | BLOOD UREA NITROGEN [11]: 13.33 mg/dL | CHOLESTEROL [11]: 76 mg/dL | CREATINE PHOSPHOKINASE [11]: 510.67 u/L | CREATININE [11]: 0.28 mg/dL | GLUCOSE [11]: 157.67 mg/dL | LACTATE DEHYDROGENASE [11]: 162.67 u/L | LIPASE [11]: 11 u/L | POTASSIUM [11]: 4.79 MEQ/L | TOTAL BILIRUBIN [11]: 0.13 mg/dL | TOTAL PROTEIN [11]: 5.6 G/DL | URIC ACID [11]: 0.33 mg/dL
